Source: patent EP0437336B1, “Biophosphoryl hydrazines and their use as pesticides” (priority 1990, dated 1991)
Converted amounts (≈) assume the structure as drawn. Like-named read-outs stand apart in the source and are kept apart here.

Key:
[1] = test system: Two-Spotted Spider Mite; assay: Biological Method D: Foliar Insecticidal Activity Test, mite test; format: in vivo, Tetranychus urticae; design: key to LC50 TSM: I = inactive at concentration listed; conditions: Method D foliar test; Two-Spotted Spider Mite
[2] = test system: Mexican Bean Beetle; assay: Biological Method D: Foliar Insecticidal Activity Test, Mexican Bean Beetle test; format: in vivo, Epilachna varivestis; design: key to LC50 BB 96 hrs / LC50 BB 48 hrs.: I = inactive at concentration listed; conditions: Method D foliar test, Mexican Bean Beetle; for LC50: Epilachna varivestis
[3] = test system: Japanese beetle (Popillia japonica ) eggs; assay: Biological Method E: Turf Grub Insecticidal Activity Test; format: in vivo; conditions: soil incorporation
Method: Biological Method E: Turf Grub Insecticidal Activity Test
These will give soil concentrations of […] (1.6, 0.8, 0.4, and 0.2 pounds per acre), respectively.
Ten milliliters of test solution were incorporated into 250 ml of moistened soil (clay loam, 90% : humus soil, 10%) and allowed to air in an uncapped pint jar for about 2 hours. After airing, a small amount of seed mixture containing equal parts of redtop (Agrostis alba ) and white clover (Trifolium repens ) was incorporated into the soil. Two 50 ml quantities of soil were placed into dep 88.72 cm³ (3 ounce) ointment tin cans.
Ten Japanese beetle (Popillia japonica ) eggs were placed into the soil in each can and the can capped with its tined lid. Treatments were held for 23 days at 30 degrees Centigrade.
Upon termination, the soil was sieved to isloate the grubs. The percent mortality was determined for each concentration.

[4] = test system: Green Peach Aphid; assay: Biological Method D: Foliar Insecticidal Activity Test, aphid test; format: in vivo, Myzus persicae; design: key: I = inactive at concentration listed
[5] = test system: Southern Armyworm; assay: Biological Method D: Foliar Insecticidal Activity Test, Southern Armyworm test; format: in vivo, Spodoptera eridania; design: key: I = inactive at concentration listed
[6] = test system: Boll Weevil; assay: Biological Method D: Foliar Insecticidal Activity Test, boll weevil test; format: in vivo, Anthonomous grandis; design: key: I = inactive at concentration listed
[7] = test system: southern corn rootworm, Diabrotica undecimpunctata howardi; assay: Biological Method A: Corn Rootworm Screening Test (treated non-aggressive soil); conditions: soil concentration giving 90% mortality, 10 days at 27°C
[8] = test system: southern corn rootworm, Diabrotica undecimpunctata howardi; conditions: at-planting soil application
[9] = test system: southern corn rootworm, Diabrotica undecimpunctata howardi; conditions: Diabrotica undecimpunctata, in Zea mays, foliar, 336 h, read-out: foliar systemic nonagressive Method B crw % control at 0.56 kg/ha (0.5 lb/acre)
[10] = 96 hrs, read-out: LC50 BB 96 hrs
[11] = 23 days at 30 degrees Centigrade

Row | SMILES | LC50 TSM [1] | LC50 [2, 10] [µg/mL] | LC50 BB 48 hrs. ([2]; 48 hrs) | LC95 [3, 11] [kg/ha] | LC95 ([3]; 23 days, value in brackets) [pounds per acre] | LC50 GPA [4] | LC50 AW 48 hrs [5] | LC50 AW 96 hrs [5] | LC50 BW 48 hrs [6] | LC50 BW 96 hrs [6] | primary nonagressive Method A crw LC90 [7] [ppm] | secondary aggressive Method C crw LC50 ([8]; rated 17 days post-infestation) [kg/ha] | secondary aggressive Method C crw LC50 ([8]; value in brackets) [lb/acre] | LC50 ([2]; 48 hrs, read-out: LC50 BB 48 hrs.) [µg/mL] | pest or weed control at 560 g/ha [9] [%]
1 | CCOP(=S)(NNP(=S)(OCC)OC(C)C)OCC(C)(C)C (stereo not drawn) [Compound 46, N-(O-ethyl O-isopropylthiophosphoryl) N′-(O-ethyl O-neopentylthiophosphoryl) hydrazine] | I | 45 (≈ 115 µM) | I | < 0.22 | < 0.2 | I | I | I | I | I | 0.08 | 0.34 | 0.30 | – | –
2 | CCCOP(=S)(NNP(=S)(OCC)OCC(C)(C)C)OCCC (stereo not drawn) [Compound 41, N-(O,O-dipropylthiophosphoryl) N′-(O-ethyl O-neopentylthiophosphoryl) hydrazine] | I | 78 (≈ 192 µM) | – | < 0.22 | < 0.2 | I | I | I | I | I | 0.06 | 0.3 | 0.27 | 62 (≈ 153 µM) | 31
